In series [1] the target is T1, human cloned 5-HT6 receptors (Homo sapiens, UniProt P50406).
T1 construct: expressed in transfected cells; host or cells: Hela cells (membrane preparation)
The series is described as follows: 5-HT6 binding affinity, [3H]-LSD displacement on membranes of Hela cells expressing the cloned receptor. The note with it: for inhibition at 1 µM: read-out: % Inhibition at 1 μM.

Setting [2] is: [3H]-LSD 3.0 nM, Hela cell membranes, 120 min at room temperature, read-out: 5-HT6 Binding Ki.

The term melting point denotes the temperature of the solid-liquid transition. Usually pKi stands for the negative decadic logarithm of the Ki, by convention in mol/L. What is called inhibition is the relative decrease from the control value, in per cent.

pKi: −log10 of the molar value. Where two headings read alike, the source gives them in different places.

T1 sequence (P50406 whole entry): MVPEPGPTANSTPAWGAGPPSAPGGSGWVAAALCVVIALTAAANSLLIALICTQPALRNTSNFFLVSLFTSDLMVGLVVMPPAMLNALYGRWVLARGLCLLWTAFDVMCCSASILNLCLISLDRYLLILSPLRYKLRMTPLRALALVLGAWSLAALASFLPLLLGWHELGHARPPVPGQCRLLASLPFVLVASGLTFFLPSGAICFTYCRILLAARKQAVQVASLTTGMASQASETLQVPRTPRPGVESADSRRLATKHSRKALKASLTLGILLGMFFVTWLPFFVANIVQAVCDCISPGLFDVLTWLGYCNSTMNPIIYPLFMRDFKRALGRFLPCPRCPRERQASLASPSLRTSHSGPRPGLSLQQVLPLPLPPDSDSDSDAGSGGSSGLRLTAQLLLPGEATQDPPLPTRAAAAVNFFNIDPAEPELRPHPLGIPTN

As for `CN(C)CCn1cc(S(=O)(=O)c2ccccc2)c2cc(C#N)ccc21` [Example 8, 1-[2-(dimethylamino)ethyl]-3-(phenylsulfonyl)-1H-indole-5-carbonitrile], the melting point was 280 °C (dec.). The pKi in series [1] (setting [2]) was 7.35.
With `NCCn1cc(S(=O)(=O)c2ccccc2)c2ccc(Cl)cc21` [Example 44, 2-[6-chloro-3-(phenylsulfonyl)-1H-indol-1-yl]ethylamine], the melting point was in the range of 200 to 206 °C. In addition, the pKi in series [1] (setting [2]) was 6.85.
With `CN(C)CCn1cc(S(=O)(=O)c2ccccc2)c2cc(F)ccc21` [Example 47], the melting point is 103 to 104 °C. Also, the pKi in series [1] is 7.36.
As to `CN(C)CCCn1cc(S(=O)(=O)c2ccccc2)c2ccccc21` [Example 15, N,N-dimethyl-3-[3-(phenylsulfonyl)-1H-indol-1-yl]propan-1-amine], the melting point fell in the range of 207 to 209 °C. Moreover, the pKi in series [1] (setting [2]) is 6.77.
The compound `COc1cccc2c1c(S(=O)(=O)c1ccccc1)cn2CCN(C)C` [Example 53] came in with a melting point of 238 to 240 °C. Besides, the negative-log Ki (pKi) in series [1] (setting [2]) is 6.82.
For `CN(C)CCn1cc(S(=O)(=O)Cc2ccccc2)c2ccccc21` [Example 31] the same measures were 219 to 220 °C and 6.00.
On the same counts, the results for `NCCn1nc(S(=O)(=O)c2ccccc2)c2ccccc21` [Example 36, 2-[3-(phenylsulfonyl)-1H-indazol-1-yl]ethylamine] are 208 to 209 °C and 7.36.
`CN(C)CCn1cc(S(=O)(=O)c2ccccc2OC(F)(F)F)c2ccccc21` [Example 57]: the pKi in series [1] (setting [2]) was 7.80.
Compound `Cn1ccnc1S(=O)(=O)c1cn(CCN)c2ccccc12` [Example 46] registered a melting point of 158 to 160 °C. Besides, in series [1] (setting [2]), the pKi is 6.24.
For `NCCCn1cc(S(=O)(=O)c2ccccc2)c2ccccc21` [Example 5, 3-[3-(phenylsulfonyl)-1H-indol-1-yl]propan-1-amine], in series [1] (setting [2]), the pKi was 7.04.
Turning to `Cc1ccc(S(=O)(=O)c2cn(CCN(C)C)c3ccccc23)cc1` [Example 52], the melting point was over 250 °C. In series [1], this compound gave a pKi of 7.24.
For `COc1ccc2c(c1)c(S(=O)(=O)c1ccccc1)cn2CCNCc1ccccc1` [Example 39], the negative logarithm of the Ki (pKi) in series [1] (setting [2]) is 7.23.
As for `CN(C)CCn1cc(S(=O)(=O)c2c(Cl)nc3sccn23)c2ccccc21` [Example 58], the melting point fell in the range of 138 to 140 °C. The negative-log Ki (pKi) in series [1] (setting [2]) is 8.22.
The compound `COc1ccc2c(S(=O)(=O)c3ccccc3)cn(CCN(C)C)c2c1` [Example 48] registered a melting point of 121 to 122 °C. Moreover, the pKi in series [1] was 7.64.
For the compound `CN(C)CCn1cc(S(=O)(=O)c2ccccc2)c2cccc(Cl)c21` [Example 10, N,N-dimethyl-N-{2-[7-chloro-3-(phenylsulfonyl)-1H-indol-1-yl]-ethyl}amine], the melting point lay in the range of 240 to 242 °C. Also, the pKi in series [1] (setting [2]) is 7.01.
Take `CN(C)CCn1cc(S(=O)(=O)c2ccccc2)c2c(F)cccc21` [Example 9, N,N-dimethyl-N-{2-[4-fluoro-3-(phenylsulfonyl)-1H-indol-1-yl]ethyl}amine]: the melting point was 201 to 203 °C. The same compound had a pKi in series [1] of 7.01.
Turning to `COc1ccc2c(c1)c(S(=O)(=O)c1ccccc1)cn2CCN` [Example 21, 2-[5-methoxy-3-(phenylsulfonyl)-1H-indol-1-yl]ethylamine], the melting point was 198 to 201 °C. In series [1] (1 μM test compound, displacement of [3H]-LSD), the inhibition at 1 µM came out at 86%.
The compound `CN(C)CCn1cc(S(=O)(=O)c2ccccc2)c2c(Cl)cccc21` [Example 11, N,N-dimethyl-N-{2-[4-chloro-3-(phenylsulfonyl)-1H-indol-1-yl]-ethyl}amine] displayed a melting point of 209 to 211 °C. Besides, in series [1] (setting [2]), the pKi is 6.87.
As for `COc1ccc2c(c1)c(S(=O)(=O)c1ccccc1)cn2CCN(C)C` [Example 20], the melting point is 214 to 216 °C. In series [1], the pKi was 7.64 and the inhibition at 1 µM is 88%.
`Cc1c(S(=O)(=O)c2ccccc2)c2ccccc2n1CCN(C)C` [Example 24, N,N-dimethyl-N-{2-[2-methyl-3-(phenylsulfonyl)-1H-indol-1-yl]ethyl}amine] registered a melting point of 258 to 260 °C. This compound gave a pKi in series [1] of 7.74.
For the compound `CN(C)CCn1cc(S(=O)(=O)c2ccccc2)c2ccc(-c3ccccc3)cc21` [Example 27], the pKi in series [1] (setting [2]) is 7.64.
Consider `Cc1cccc2c1c(S(=O)(=O)c1ccccc1)cn2CCN(C)C` [Example 12, N,N-dimethyl-N-{2-[4-methyl-3-(phenylsulfonyl)-1H-indol-1-yl]ethyl}amine], for which the melting point fell in the range of 220 to 221 °C. For the same compound, in series [1] (setting [2]), the pKi is 6.74.
On the same counts, the results for `NCCn1cc(S(=O)(=O)c2ccccc2)c2ccccc21` [Example 40, 2-[3-(phenylsulfonyl)-1H-indol-1-yl]ethylamine] are 220 to 221 °C and 7.60.
For `O=S(=O)(Cc1ccccc1)c1cn(CCN2CCCCC2)c2ccccc12` [Example 32], the melting point is 223 to 225 °C. Also, in series [1] (setting [2]), the pKi was 6.19.
On the same counts, the results for `CN(C)CCn1cc(S(=O)(=O)c2cccc(F)c2)c2ccccc21` [Example 25] are 210 to 211 °C and 7.89.
For `CN(C)CCn1nc(S(=O)(=O)c2ccccc2)c2ccccc21` [Example 35], the negative-log Ki (pKi) in series [1] (setting [2]) was 7.13.
In turn, `CN(C)CCn1cc(S(=O)(=O)c2ccccc2)c2ccc(F)cc21` [Example 50] showed a melting point of 100 to 102 °C. In series [1], the pKi was 7.34.
Compound `COc1cccc2c(S(=O)(=O)c3ccccc3)cn(CCN(C)C)c12` [Example 23] had a melting point of 236 to 238 °C. The same compound showed a pKi in series [1] of 7.60.
The compound `CN(C)CCn1cc(S(=O)(=O)c2ccccc2)c2cccc(C#N)c21` [Example 14, 1-[2-(dimethylamino)ethyl]-3-(phenylsulfonyl)-1H-indole-7-carbonitrile] yielded a melting point of 134 to 136 °C. The pKi in series [1] (setting [2]) was 6.12. The inhibition at 1 µM in series [1] was found to be 35%.
For `Cc1ccc2c(S(=O)(=O)c3ccccc3)cn(CCN(C)C)c2c1` [Example 49], the melting point lay within 131 to 132 °C. The pKi in series [1] (setting [2]) is 7.29.
In series [1], `CN(C)CCn1cc(S(=O)(=O)c2ccccc2)c2ccccc21` [Example 3] gave a pKi of 7.70.
`Cc1ccc(S(=O)(=O)c2cn(CCN)c3ccccc23)cc1` [Example 45]: the melting point is 178 to 183 °C. For the same compound, in series [1] (setting [2]), the pKi is 7.60.
Compound `CN(C)CCn1cc(S(=O)(=O)c2cccc3ccccc23)c2ccccc21` [Example 26] yielded a melting point of 239 to 241 °C. Further, the pKi in series [1] (setting [2]) is 8.40.
On the same counts, the results for `CN(C)CCCCn1cc(S(=O)(=O)c2ccccc2)c2ccccc21` [Example 7] are 184 to 187 °C and 6.80.
`CN(C)CCn1cc(S(=O)(=O)c2ccccc2)c2ccc(Cl)cc21` [Example 51] gave a melting point of 104 to 106 °C. In series [1], this compound showed a pKi of 7.38.
Compound `CCc1cccc2c(S(=O)(=O)c3ccccc3)cn(CCN(C)C)c12` [Example 13, N,N-dimethyl-N-{2-[7-ethyl-3-(phenylsulfonyl)-1H-indol-1-yl]ethyl}amine] came in with a melting point of 213 to 216 °C. In series [1], this compound had a pKi of 7.19.
Turning to `CN(C)CCn1nc(S(=O)(=O)c2cccc(F)c2)c2ccccc21` [Example 37], the melting point is 192 to 194 °C. In addition, the pKi in series [1] (setting [2]) is 7.26.

For the origin of these results see patent US6727246B2, “1-(aminoalkyl)-3-sulfonylindole-and-indazole derivatives as 5-hydroxytryptamine-6 ligands” (Wyeth, priority 2002, dated 2004).
